Where two headings read alike, the source gives them in different places.
Experiments:
[1] = Solubility of salts and drugs in water / ethanol; type: physicochemical
Source text: Spray drying homogenous particles requires that the ingredients of interest be solubilized in solution or suspended in a uniform and stable suspension. Most of the materials mentioned in the material section are sufficiently water-soluble to prepare suitable spray drying solutions. […] As a result of these low solubilities, formulation feedstock development work was necessary to prepare solutions or suspensions that could be spray dried.
For the spray drying process, the salts, excipients and other drugs were dissolved or suspended in a solvent (e.g., water). The solid concentrations (w/v) were chosen dependent on the solubility of the different components (see Table 2). The ratios used for formulations were based on the molecular weight of the anhydrous salts (see Table 3).

[2] = test system: mice sensitized and challenged with ovalbumin (OVA); conditions: literature (Riesenfeld 2010); cited from earlier work

solubility in ethanol [1]	solubility in water [1]	solubility in ethanol ([1]; in words)	solubility in water ([1]; in words)	SMILES	eosinophilic cells and total cellularity in the mouse OVA model [2]
slightly soluble	practically insoluble	–	–	CCCC1O[C@@H]2C[C@H]3[C@@H]4CCC5=CC(=O)C=C[C@]5(C)[C@H]4[C@@H](O)C[C@]3(C)[C@]2(C(=O)CO)O1 (stereo partly shown) [Budesonide, budesonide]	–
–	–	slightly soluble	practically insoluble	OCc1cc(C(O)CNCCCCCCOCCCCc2ccccc2)ccc1O (stereo not shown) [salmeterol xinafoate]	–
slightly soluble	practically insoluble	–	–	CCC(=O)O[C@]1(C(=O)SCF)[C@H](C)C[C@H]2[C@@H]3C[C@H](F)C4=CC(=O)C=C[C@]4(C)[C@@]3(F)[C@@H](O)C[C@@]21C [Fluticasone propionate, fluticasone propionate]	reduce eosinophilic cells and total cellularity
